What all share (format): functional
Assay [1] addresses Polyadenylate-binding protein 1 (Homo sapiens, UniProt P11940). The assay is described as follows: MLLE domain peptide-binding blockers, IC50 – biochemical, fluorescence polarization, FITC-PAM2 peptide, dose response (AID 602259). The conditions noted are these: read-out: IC50_Mean. For orientation: Polarisation of emitted light reports the rotation of a fluorescent probe.
Assay [2] can be described thus: viability of BHK-21 cells – cell-based, secondary screen, cytotoxicity control for flavivirus guanylyltransferase probe project (AID 624078).
The target of assay [3] is T1, Sentrin-specific protease 7 (Homo sapiens, UniProt Q9BQF6).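 Further: Luminescence-based dose-response confirmation of ultra-high-throughput screening hits, measuring inhibition of SENP7.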
T1 sequence (Q9BQF6 whole entry): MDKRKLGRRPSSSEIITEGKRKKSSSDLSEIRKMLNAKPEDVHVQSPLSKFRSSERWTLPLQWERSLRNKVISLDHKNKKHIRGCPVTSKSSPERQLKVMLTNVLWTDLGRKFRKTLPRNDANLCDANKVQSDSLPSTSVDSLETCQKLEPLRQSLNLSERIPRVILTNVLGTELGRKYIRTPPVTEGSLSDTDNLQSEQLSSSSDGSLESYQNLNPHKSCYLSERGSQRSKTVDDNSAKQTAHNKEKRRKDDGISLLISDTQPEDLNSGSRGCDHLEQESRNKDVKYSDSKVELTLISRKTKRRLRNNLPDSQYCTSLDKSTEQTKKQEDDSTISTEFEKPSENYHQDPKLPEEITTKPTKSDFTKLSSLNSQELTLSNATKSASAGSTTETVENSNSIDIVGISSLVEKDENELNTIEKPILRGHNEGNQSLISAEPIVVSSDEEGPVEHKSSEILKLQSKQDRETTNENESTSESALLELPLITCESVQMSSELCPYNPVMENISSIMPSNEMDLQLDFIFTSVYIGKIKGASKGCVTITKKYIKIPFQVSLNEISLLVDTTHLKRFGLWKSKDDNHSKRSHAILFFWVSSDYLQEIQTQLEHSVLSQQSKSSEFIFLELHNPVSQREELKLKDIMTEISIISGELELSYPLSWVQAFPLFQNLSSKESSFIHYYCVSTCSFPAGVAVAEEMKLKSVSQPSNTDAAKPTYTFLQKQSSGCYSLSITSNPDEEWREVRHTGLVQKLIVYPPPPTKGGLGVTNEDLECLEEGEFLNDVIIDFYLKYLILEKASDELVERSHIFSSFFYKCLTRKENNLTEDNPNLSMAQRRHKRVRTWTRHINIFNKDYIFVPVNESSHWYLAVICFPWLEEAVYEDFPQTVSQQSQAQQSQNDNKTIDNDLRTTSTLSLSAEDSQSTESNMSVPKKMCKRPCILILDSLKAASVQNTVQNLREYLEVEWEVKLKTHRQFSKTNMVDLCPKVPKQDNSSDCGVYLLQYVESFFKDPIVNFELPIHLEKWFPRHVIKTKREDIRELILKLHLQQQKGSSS

The target in assay [4] is T2, Apoptotic protease-activating factor 1 (Homo sapiens, UniProt O14727).
T2 sequence (O14727 whole entry): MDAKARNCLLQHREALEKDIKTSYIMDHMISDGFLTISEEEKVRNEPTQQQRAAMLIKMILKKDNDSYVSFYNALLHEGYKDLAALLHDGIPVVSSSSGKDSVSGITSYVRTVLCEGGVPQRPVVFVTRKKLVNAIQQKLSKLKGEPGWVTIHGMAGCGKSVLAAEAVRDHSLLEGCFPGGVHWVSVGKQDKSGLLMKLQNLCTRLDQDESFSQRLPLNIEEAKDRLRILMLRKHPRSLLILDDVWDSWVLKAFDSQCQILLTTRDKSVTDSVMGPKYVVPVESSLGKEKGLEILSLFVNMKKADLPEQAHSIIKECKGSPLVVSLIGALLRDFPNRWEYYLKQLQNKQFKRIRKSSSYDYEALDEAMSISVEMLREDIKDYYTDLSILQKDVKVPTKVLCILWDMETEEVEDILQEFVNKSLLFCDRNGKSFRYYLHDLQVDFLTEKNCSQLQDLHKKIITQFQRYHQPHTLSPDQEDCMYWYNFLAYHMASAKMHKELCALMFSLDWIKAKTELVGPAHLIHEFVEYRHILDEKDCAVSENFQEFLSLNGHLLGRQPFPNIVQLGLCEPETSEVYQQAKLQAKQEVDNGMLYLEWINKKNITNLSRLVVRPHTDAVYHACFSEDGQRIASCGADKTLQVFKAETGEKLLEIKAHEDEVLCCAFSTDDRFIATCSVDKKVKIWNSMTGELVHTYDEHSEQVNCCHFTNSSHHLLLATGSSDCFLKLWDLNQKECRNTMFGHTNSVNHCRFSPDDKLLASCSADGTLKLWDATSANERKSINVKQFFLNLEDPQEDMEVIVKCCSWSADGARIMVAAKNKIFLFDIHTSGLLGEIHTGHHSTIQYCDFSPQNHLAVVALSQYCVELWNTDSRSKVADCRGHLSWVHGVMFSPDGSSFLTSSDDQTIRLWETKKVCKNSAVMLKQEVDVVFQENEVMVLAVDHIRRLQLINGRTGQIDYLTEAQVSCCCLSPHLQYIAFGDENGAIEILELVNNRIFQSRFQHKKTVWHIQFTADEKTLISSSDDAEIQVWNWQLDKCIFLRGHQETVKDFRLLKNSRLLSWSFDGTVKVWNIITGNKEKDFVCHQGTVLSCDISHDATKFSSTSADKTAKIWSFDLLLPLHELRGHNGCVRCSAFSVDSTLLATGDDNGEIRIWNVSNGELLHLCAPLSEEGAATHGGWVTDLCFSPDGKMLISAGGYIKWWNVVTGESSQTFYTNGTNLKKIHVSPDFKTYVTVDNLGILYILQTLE

Assay [5] has as its target T3, Sphingosine 1-phosphate receptor 4 (Homo sapiens, UniProt O95977).
T3 sequence (O95977 whole entry): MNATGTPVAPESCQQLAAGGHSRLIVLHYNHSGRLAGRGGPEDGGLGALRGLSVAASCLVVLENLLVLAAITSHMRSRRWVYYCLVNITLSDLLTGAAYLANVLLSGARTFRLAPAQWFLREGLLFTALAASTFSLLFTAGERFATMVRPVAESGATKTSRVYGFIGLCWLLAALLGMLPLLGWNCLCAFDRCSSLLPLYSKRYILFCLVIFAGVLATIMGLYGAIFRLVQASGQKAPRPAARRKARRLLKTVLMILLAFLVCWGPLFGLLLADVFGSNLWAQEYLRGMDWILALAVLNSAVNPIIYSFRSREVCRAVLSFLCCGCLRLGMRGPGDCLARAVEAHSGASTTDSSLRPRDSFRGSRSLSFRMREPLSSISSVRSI
The assay is described as follows: Late stage fluorescence dose response cell-based screening assay for antagonists of the Sphingosine 1-Phosphate Receptor 4 (S1P4). [Related pubchem assays: 1524 (Confirmation screen (S1P4 antagonists).), 1510 (Primary screen (S1P4 antagonists).), 1853 (Summary AID (S1P4 antagonists).), 1692 (Dose response screen (S1P4 antagonists).)].

For another assay, the target named is Fatty acid synthase (Homo sapiens, UniProt P49327). Nature of the assay: inhibition of human FAS-TE enzyme activity – biochemical, endpoint fluorescence intensity, uHTS hits, dose response (AID 624327).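 Further: fluorescence from hydrolysis of an O-methyl fluorescein acyl ester substrate by the enzyme.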

The source made the active and inactive calls.

Polyadenylate-binding protein 1, sequence (P11940 whole entry, the tested form may be a part): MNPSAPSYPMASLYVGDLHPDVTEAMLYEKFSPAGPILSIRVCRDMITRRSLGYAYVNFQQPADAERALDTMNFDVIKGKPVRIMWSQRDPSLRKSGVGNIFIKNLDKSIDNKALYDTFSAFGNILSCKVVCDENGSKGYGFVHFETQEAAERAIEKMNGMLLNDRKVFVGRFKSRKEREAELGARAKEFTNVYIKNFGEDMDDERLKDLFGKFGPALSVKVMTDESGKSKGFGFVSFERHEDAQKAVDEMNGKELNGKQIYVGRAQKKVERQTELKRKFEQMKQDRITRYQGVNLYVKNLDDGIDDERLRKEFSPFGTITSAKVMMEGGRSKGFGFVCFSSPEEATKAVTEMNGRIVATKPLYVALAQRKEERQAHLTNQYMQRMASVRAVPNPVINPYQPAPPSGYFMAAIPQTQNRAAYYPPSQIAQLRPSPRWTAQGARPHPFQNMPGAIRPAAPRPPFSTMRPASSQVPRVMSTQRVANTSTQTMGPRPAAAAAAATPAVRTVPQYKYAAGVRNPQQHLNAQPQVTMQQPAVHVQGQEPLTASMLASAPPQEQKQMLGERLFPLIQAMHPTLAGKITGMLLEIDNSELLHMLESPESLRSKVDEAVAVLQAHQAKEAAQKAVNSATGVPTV
Fatty acid synthase, sequence (P49327 whole entry): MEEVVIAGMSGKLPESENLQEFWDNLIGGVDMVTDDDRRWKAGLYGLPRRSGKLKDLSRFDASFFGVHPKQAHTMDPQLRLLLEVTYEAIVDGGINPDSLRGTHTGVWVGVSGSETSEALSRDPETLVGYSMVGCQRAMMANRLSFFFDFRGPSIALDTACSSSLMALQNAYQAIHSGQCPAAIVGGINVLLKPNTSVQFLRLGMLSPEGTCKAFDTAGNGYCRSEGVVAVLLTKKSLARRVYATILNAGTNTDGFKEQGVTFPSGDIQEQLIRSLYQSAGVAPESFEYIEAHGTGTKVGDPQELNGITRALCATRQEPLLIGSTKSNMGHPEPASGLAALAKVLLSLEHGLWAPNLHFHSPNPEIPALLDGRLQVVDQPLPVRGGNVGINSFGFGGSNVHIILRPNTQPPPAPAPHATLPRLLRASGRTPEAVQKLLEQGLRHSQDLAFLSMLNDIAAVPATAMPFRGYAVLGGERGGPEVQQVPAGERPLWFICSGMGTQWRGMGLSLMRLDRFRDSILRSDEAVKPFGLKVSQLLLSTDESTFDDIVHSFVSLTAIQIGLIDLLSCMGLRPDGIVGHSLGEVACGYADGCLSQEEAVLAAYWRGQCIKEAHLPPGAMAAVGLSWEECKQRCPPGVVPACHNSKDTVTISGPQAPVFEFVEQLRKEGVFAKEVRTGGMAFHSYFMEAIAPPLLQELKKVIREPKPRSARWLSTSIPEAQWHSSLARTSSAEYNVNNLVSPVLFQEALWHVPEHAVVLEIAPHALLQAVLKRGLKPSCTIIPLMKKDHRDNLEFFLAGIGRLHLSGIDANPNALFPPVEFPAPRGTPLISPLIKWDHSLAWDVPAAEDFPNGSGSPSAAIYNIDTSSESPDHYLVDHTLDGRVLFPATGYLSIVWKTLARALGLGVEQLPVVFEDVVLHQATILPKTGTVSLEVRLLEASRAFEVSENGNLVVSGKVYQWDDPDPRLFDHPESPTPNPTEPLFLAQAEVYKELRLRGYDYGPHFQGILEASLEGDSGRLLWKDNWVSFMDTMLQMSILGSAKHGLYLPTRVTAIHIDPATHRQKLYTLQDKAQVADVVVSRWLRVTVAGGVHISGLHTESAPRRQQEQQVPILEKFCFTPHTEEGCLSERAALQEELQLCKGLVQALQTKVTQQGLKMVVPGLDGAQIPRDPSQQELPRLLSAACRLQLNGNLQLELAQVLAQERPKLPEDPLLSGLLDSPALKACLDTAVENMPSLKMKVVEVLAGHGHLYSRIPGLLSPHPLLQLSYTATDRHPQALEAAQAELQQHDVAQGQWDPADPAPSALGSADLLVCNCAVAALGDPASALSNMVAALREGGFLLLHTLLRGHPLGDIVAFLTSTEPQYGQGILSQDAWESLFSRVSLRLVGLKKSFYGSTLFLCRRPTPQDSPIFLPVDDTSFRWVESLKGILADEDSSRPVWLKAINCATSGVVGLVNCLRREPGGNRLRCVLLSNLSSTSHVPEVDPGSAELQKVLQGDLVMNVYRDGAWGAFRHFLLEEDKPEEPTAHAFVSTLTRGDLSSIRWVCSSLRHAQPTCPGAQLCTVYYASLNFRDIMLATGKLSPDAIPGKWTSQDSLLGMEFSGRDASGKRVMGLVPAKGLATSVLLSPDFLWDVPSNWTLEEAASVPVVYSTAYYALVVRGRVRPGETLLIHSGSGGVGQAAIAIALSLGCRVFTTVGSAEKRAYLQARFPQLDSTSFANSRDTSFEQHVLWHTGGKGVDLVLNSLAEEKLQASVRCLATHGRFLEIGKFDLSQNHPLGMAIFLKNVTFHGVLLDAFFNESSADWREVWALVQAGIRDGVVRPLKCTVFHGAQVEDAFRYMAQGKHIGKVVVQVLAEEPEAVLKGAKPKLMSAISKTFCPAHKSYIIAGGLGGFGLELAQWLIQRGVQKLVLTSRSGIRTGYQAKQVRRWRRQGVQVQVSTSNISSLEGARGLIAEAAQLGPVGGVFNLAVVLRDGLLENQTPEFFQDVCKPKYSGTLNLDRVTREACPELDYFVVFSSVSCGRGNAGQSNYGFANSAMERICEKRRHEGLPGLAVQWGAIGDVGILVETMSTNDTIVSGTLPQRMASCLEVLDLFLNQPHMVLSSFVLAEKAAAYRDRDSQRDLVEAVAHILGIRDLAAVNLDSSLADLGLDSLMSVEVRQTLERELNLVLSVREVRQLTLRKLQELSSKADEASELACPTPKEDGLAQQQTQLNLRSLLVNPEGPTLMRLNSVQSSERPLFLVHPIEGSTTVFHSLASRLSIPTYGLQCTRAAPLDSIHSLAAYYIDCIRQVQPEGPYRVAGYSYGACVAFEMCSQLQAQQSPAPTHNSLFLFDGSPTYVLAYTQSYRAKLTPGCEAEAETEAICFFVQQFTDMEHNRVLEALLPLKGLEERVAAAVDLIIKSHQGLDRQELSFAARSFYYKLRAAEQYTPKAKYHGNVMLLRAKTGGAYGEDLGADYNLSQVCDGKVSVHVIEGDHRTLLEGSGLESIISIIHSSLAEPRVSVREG

A word on the CC50: it is the concentration giving 50% cytotoxicity. For the molecule `O=C(O)CSc1cc(NS(=O)(=O)c2ccc(Br)cc2)c2ccccc2c1O`, the IC50 in assay [1] is > 66 µM (inactive). Also, the CC50 in assay [2] is 7.81 µM (active).
For the molecule `O=C1NC(=S)N/C1=C/c1cc2c(cc1[N+](=O)[O-])OCO2`, the IC50 was 25.4 µM (active) in assay [3] and 12.9 µM (active) in assay [4].
`Cc1ccc(NC(=O)C2=C(c3ccccc3)S(=O)(=O)CCS2(=O)=O)cc1`: the IC50 in assay [5] was 3.72 µM (not active); at Fatty acid synthase, 3.96 µM (active).
